Source: patent publication US4450149A, “Radiohalogenation method” (Research Corporation, priority 1981, dated 1984)
Where two headings read alike, the source gives them in different places.

Tests used:
[1] = reported in J. Nucl. Med., 22:0000, 1981; average of 5 rats (standard deviation); cited from earlier work
[2] = Tissue distribution study of radioiodinated fatty acid, 5 min post intravenous injection; assay type: in vivo, female Sp-raque-Dawley rats; conditions: 5 min post injection, approximately 25 μCi, Prepared Via Present Method, average of 5 rats (standard deviation)
Procedure: Tissue Distribution Study The radioiodinated 19-^125 I-iodononadecanoicacid was evaluated in female Sp-raque-Dawley rats weighing 250-350 g. The rats were given food and water ad libidum. For the tissue distribution study, approximately 25 μCi of the fatty acid in a physiological formulation (EtOH/Tween 80/0.9% saline: 2.5 ml/0.65 ml/22 ml) was administered intraveneously to ether anesthetized rats. Five animals were sacrificed at 5 min post injection. Representative 50-100 mg samples of heart, liver, lung, blood, and muscle were removed and cleaned of fat and connective tissue. Samples were counted in an auto-gamma scintillation counter and values corrected for radioactive decay, counting efficiency and background. The resulting tissue concentration values were normalized to a per kilogram body weight and are reported in % kg dose/g. as shown in Table 8.

O=C(O)CCCCCCCCCCCCCCCCCC[125I] [19-^125 I--iodononadecanoic acid]
tissue concentration, Blood [1]: 0.15 ± 0.01 % kg dose/g
tissue concentration, Heart [1]: 0.88 ± 0.23 % kg dose/g
tissue concentration, Liver [1]: 0.53 ± 0.02 % kg dose/g
tissue concentration, Lung [1]: 0.28 ± 0.04 % kg dose/g
tissue concentration, Muscle [1]: 0.19 ± 0.00 % kg dose/g
tissue concentration, Blood [2]: 0.13 ± 0.00 % kg dose/g
tissue concentration, Heart [2]: 0.71 ± 0.01 % kg dose/g
tissue concentration, Liver [2]: 0.47 ± 0.03 % kg dose/g
tissue concentration, Lung [2]: 0.24 ± 0.02 % kg dose/g
tissue concentration, Muscle [2]: 0.14 ± 0.00 % kg dose/g
